According to US8017807B2, “Tetrahydroxy compound, method for preparing the tetrahydroxy compound, and photoreceptor using the tetrahydroxy compound” (Ricoh Company Limited, priority 2005, dated 2011):

Legend:
[1] = Crosslinked outermost layer of photoreceptor from methanol coating liquid; image formation; details: with methyl trimethoxy silane in methanol
Procedure: Preparation of Crosslinked Charge Transport Layer Using Sol-Gel Method
The following components were mixed.
The mixture was agitated for one hour at room temperature to perform a reaction. Then 53.4 mg of tris(2,4-pentanedionate)aluminum (III) was added to the mixture to prepare a coating liquid including methanol as a solvent.
The coating liquid was coated on the above-prepared charge transport layer by a spray coating method and then dried to form an outermost layer with a thickness of 2 μm. The photoreceptor was heated for 1 hour at 130° C. to crosslink the outermost layer.
The photoreceptor was set in the main body of the image forming apparatus (IMAGIO NEO) to produce images. The resultant images had good image qualities.
The procedure for preparation of the outermost layer in Applied Example 1 was repeated except that the compound of Example 1 was replaced with each of the comparative compounds (6) to (9).

[2] = Film formability when mixed 1:1 with alcohol-soluble polyamide resin (CM8000), blade-coated layer; format: physicochemical; parameters: key to Film formability: ◯: The resultant layer is transparent.; X: The resultant layer is opaque due to crystallization of the compounds or bad compatibility with the resin; details: for Film formability: 1:1 by weight with polyamide resin CM8000, solid content 20% by weight, 20 μm layer on aluminum plate, dried at 23° C.; for Film formability (in words): mixed with an alcohol-soluble resin
Procedure: In addition, each of the compound of Example 1 and comparative compounds (6) to (9) was mixed with an alcohol-soluble polyamide resin (CM8000 from Toray Industries, Inc.) in a weight ratio of 1:1 such that the solid content of the mixture is 20% by weight. Each of the mixtures was coated on an aluminum plate by a blade coating method and then dried at room temperature (23° C.) to prepare a layer with a thickness of 20 μm. The thus prepared layers were visually observed to determine the film formability of the layers. The film formability was graded as follows:
◯: The resultant layer is transparent.
X: The resultant layer is opaque due to crystallization of the compounds or bad compatibility with the resin.

[3] = Solubility to alcohol (methanol), visual observation; format: physicochemical; parameters: key to Solubility to methanol, solid content 5% by weight / Solubility to methanol, solid content 10% by weight / Solubility to methanol, solid content 20% by weight / Solubility to methanol, solid content 30% by weight / Solubility to methanol, solid content 40% by weight / Solubility to methanol, solid content 50% by weight / Solubility to methanol, solid content 60% by weight: ◯: The compound is perfectly dissolved in methanol, and the resultant liquid contains no solid material.; X: The compound is imperfectly dissolved in methanol and the resultant liquid contains a solid material or is opaque (i.e., is not transparent); details: for Solubility to methanol, solid content 5% by weight / Solubility to methanol, solid content 10% by weight / Solubility to methanol, solid content 20% by weight / Solubility to methanol, solid content 30% by weight / Solubility to methanol, solid content 40% by weight / Solubility to methanol, solid content 50% by weight / Solubility to methanol, solid content 60% by weight: methanol solution, one hour at room temperature, visual
Procedure: Each of the compound of Example 1 and comparative compounds (6) to (9) was dissolved in methanol to prepare methanol solutions thereof having a solid content of 5%, 10%, 20%, 30%, 40%, 50% or 60% by weight. Alter the solutions were allowed to settle for one hour at room temperature, the solutions were visually observed to determine the solubility of the compounds to methanol. The solubility to methanol was graded as follows:
◯: The compound is perfectly dissolved in methanol, and the resultant liquid contains no solid material.
X: The compound is imperfectly dissolved in methanol and the resultant liquid contains a solid material or is opaque (i.e., is not transparent).

[4] = as above; format: physicochemical; details: background section, no method given

SMILES | Preparation of outermost layer coating liquid in methanol [1] | Film formability [2] | Solubility to methanol, solid content 5% by weight [3] | Solubility to methanol, solid content 10% by weight [3] | Solubility to methanol, solid content 20% by weight [3] | Solubility to methanol, solid content 30% by weight [3] | Solubility to methanol, solid content 40% by weight [3] | Solubility to methanol, solid content 50% by weight [3] | Solubility to methanol, solid content 60% by weight [3] | Solubility to methanol (present inventors' study of prior-art compounds) [4] | Film formability (in words) [2] | Solubility to methanol (in words) [3]
CCc1ccc(N(c2ccc(CCO)cc2)c2ccc(CCO)cc2)cc1C [Comp. compound (8)] | coating liquid could be prepared | X | ◯ | ◯ | ◯ | ◯ | X | X | X | – | – | –
Oc1cccc(N(c2ccccc2)c2ccc(-c3ccc(N(c4ccccc4)c4cccc(O)c4)cc3)cc2)c1 [N,N′-diphenyl-N,N′-bis(3-hydroxyphenyl)-[1,1′-biphenyl]-4,4′-diamine] | – | – | – | – | – | – | – | – | – | insufficient | – | –
OCC(O)COc1ccc(N(c2ccccc2)c2ccc(-c3ccc(N(c4ccccc4)c4ccc(OCC(O)CO)cc4)cc3)cc2)cc1 (stereo not shown) [Example 2, N,N′-diphenyl-N,N′-bis[4-(2,3-dihydroxypropyloxy)phenyl]benzidine] | – | – | – | – | – | – | – | – | – | – | as good solubility to methanol and film formability as the compound of Example 1 | as good solubility to methanol
Cc1ccc(N(c2ccc(C)cc2)c2ccc(C(C)(c3ccc(O)cc3)c3ccc(O)cc3)cc2)cc1 [Comp. compound (6)] | coating liquids could not be prepared | X | ◯ | ◯ | ◯ | ◯ | X | X | X | – | – | poor solubility to methanol
Oc1cccc(N(c2ccccc2)c2ccc(-c3ccc(N(c4ccccc4)c4cccc(O)c4)cc3)cc2)c1 [Comp. compound (7)] | coating liquids could not be prepared | X | ◯ | ◯ | ◯ | X | X | X | X | – | – | poor solubility to methanol
Cc1ccc(N(c2ccc(C)cc2)c2ccc(C=C(c3ccc(OCCO)cc3)c3ccc(OCCO)cc3)cc2)cc1 [Comp. compound (9)] | coating liquids could not be prepared | – | X | X | X | X | X | X | X | – | – | poor solubility to methanol
Cc1ccc(N(c2ccc(C)cc2)c2ccc(C=C(c3ccc(OCC(O)CO)cc3)c3ccc(OCC(O)CO)cc3)cc2)cc1 (stereo not shown) [Compound of Ex. 1, N-{4-[2,2-bis(4-(2,3-dihydroxypropyloxy)phenyl)vinyl]phenyl}-N,N-bis(4-tolyl)amine] | – | ◯ | ◯ | ◯ | ◯ | ◯ | ◯ | ◯ | ◯ | – | good film formability | good solubility to methanol
Cc1ccc(N(c2ccc(C)cc2)c2ccc(C(C)(c3ccc(O)cc3)c3ccc(O)cc3)cc2)cc1 [1,1-bis(4-hydroxyphenyl)-1-[4-(paraditolylamino)phenyl]ethane] | – | – | – | – | – | – | – | – | – | insufficient | – | –
